Measurements: patent US8513307B2, “N-phenylacetamide inhibitors of the enzyme SOAT-1 and pharmaceutical/cosmetic compositions comprised thereof” (Galderma Research & Development, priority 2007, dated 2013)

Molecular target: T1, enzyme ACAT-1 (Homo sapiens, UniProt P35610)
T1 construct: endogenous in cells; host or cells: HepG2
T1 sequence (P35610 1-550): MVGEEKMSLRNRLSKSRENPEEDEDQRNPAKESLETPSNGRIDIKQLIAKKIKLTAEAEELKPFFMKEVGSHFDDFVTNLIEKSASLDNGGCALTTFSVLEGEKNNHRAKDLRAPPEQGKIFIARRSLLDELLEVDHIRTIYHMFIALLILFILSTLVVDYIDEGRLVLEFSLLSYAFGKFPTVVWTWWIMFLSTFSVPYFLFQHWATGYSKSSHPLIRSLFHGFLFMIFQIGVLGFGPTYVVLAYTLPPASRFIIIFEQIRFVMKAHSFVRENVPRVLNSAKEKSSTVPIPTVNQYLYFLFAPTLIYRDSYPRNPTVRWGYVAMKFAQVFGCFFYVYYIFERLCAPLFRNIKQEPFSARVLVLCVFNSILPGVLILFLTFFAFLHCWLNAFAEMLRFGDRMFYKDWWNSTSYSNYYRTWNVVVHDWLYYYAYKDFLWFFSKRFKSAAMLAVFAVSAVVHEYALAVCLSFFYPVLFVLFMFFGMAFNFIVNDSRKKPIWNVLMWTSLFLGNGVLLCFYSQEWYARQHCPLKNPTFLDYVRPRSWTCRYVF
Assay: primary enzymatic test HepG2: NBD-cholesterol fluorescence test of inhibitory action on ACAT-1 (SOAT-1)
Assay type: cell-based
Settings: HepG2 cells, NBD-cholesterol 1 μg/ml, incubation 6 h at 37° C., fluorescence excitation 490 nm, emission 540 nm
Description: The compounds (I) according to the invention, as well as their pharmaceutically acceptable salts, solvates and/or hydrates, have inhibitory properties on the enzyme SOAT-1. This inhibitory activity on the enzyme SOAT-1 is measured according to a primary enzymatic test HepG2, as described in Example 16.
The compounds of formula (I) according to the invention were subjected to a test allowing their inhibitory action to be evaluated with respect to the enzyme ACAT-1 inspired by the following publication: “Identification of ACAT1- and ACAT2-specific inhibitors using a novel, cell-based fluorescence assay: individual ACAT uniqueness”, J. Lipid. Res (2004) vol 45, pages 378-386. The principle of this test is based on the employment of NBD-cholesterol, an analogue of cholesterol whose fluorescence depends on its environment. When this is present in a polar environment, it is weakly fluorescent although in a nonpolar environment it is strongly fluorescent. Free NBD-cholesterol locates itself in the cell membranes and is weakly fluorescent in this polar environment. When the NBD-cholesterol is esterified by ACAT, the ester of NBD-cholesterol locates itself in the nonpolar lipid droplets and is in that case strongly fluorescent.
The method below is applied: The HepG2 cells are incubated in the presence of NBD-cholesterol (1 μg/ml) and of the compound of formula (I) to be tested in black 96-well plates with a transparent base at a rate of 30 000 cells per well. After incubation for 6 h at 37° C., under 5% CO2, the medium is eliminated by turning over and the cells are washed with 2 times 100 μl of PBS. After addition of 50 μl of lysis buffer (NaPO4 10 mM, Igepal 1%), the plates are stirred for 5 min and read in fluorescence (excitation 490 nm, emission 540 nm) on a FUSION apparatus (Perkin-Elmer).

| IC50 [nM] | SMILES |
| --- | --- |
| 5.4 | CC(C)c1cccc(C(C)C)c1NC(=O)CN1CC2(CCCCC2)N(c2ccccc2)C1=O [I.1, N-(2,6-Diisopropylphenyl)-2-(2-oxo-1-phenyl-1,3-diazaspiro[4.5]dec-3-yl)-acetamide] |
| 3.2 | Cc1ccc(N2C3(CCCCC3)CN(CC(=O)Nc3c(C(C)C)cccc3C(C)C)S2(=O)=O)cc1 [I.5, N-(2,6-Diisopropylphenyl)-2-(2,2-dioxo-1-p-tolyl-2lambda*6*-thia-1,3-di-azaspiro[4.5]dec-3-yl)acetamide] |
| 7.1 | CCc1ccc(N2C(=O)N(CC(=O)Nc3c(C(C)C)cccc3C(C)C)CC23CCCCC3)cc1 [I.9, N-(2,6-Diisopropylphenyl)-2-[1-(4-ethylphenyl)-2-oxo-1,3-diazaspiro-[4.5]dec-3-yl]acetamide] |
| 0.9 | CCC1(CC)CN(CC(=O)Nc2c(C(C)C)cccc2C(C)C)C(=O)N1c1ccc(C)cc1 [I.13, 2-(4,4-Diethyl-2-oxo-3-p-tolylimidazolidin-1-yl)-N-(2,6-diisopropylphenyl)-acetamide] |
